Results taken from patent US11730712B2, “Functionalized long-chain hydrocarbon mono- and di-carboxylic acids and derivatives thereof, and their use for the prevention or treatment of disease” (ESPERVITA THERAPEUTICS, INC., priority 2021, dated 2023).

System: liver fibrosis gene panel (770 genes)
Assay: Nanostring nCounter Fibrosis panel gene expression in liver of DEN-injected mice
Type: in vivo, mouse
Method: Nanostring Analysis. RNA was extracted from paired liver and tumor tissue from vehicle, Compound I-1 (100 mg/kg) and Compound I-32 (100 mg/kg) treated mice using an RNeasy kit (Qiagen, Calif., USA) as per manufacturer's protocol. All RNA samples passed the BioAnalyzer quality control test. The expression of target genes in liver and tumor were analyzed using the nCounter Fibrosis and Cancer Panel (NanoString Technologies, Inc., WA, USA), respectively according to manufacturer's protocol at the McMaster Genomics Facility. Technical and biological normalization against global geometric mean was performed in nSolver 4.0 software (NanoString Technologies). Technical normalization was performed in the nSolver software (version 4.0.70) by normalizing sample target raw counts to the geometric mean of positive control spike-ins. Biological normalization was performed by normalizing sample target raw counts to the geometric mean of selected housekeeping genes (Ppia, Nubp1, Nol7, Armh3, Rplp0, Cnot10, Pgk1, and Acad9). Pathway scores were calculated as the first principal component of the normalized expression values for all genes in each pathway and samples were compiled according to experimental groups to determine average pathway scores. Statistical significance was calculated between experimental groups using multiple t-tests and p-values were corrected for multiple comparisons using Benjamin-Hochberg false discovery rate.
Molecular analysis. To identify the pathways modulated in the liver and tumor tissue, nanostring analysis of fibrosis and cancer, pathways, respectively were completed in an n=8 mice treated with vehicle or Compound I-32 or Compound I-1 at 100 mg/kg.

## CC(C)(CCCCc1ccc(CCCCC(C)(C)C(=O)O)cc1)C(=O)O [Compound I-1, 6-[4-(5-carboxy-5-methylhexyl)-phenyl]-2,2-dimethylhexanoic acid]
100 mg/kg, 4 weeks
  number of genes downregulated: 170
  number of genes upregulated: 86
  number of genes with altered expression relative to vehicle controls (770 genes measured): 256
NM_00761-1, 100 mg/kg, vs vehicle
  Casp7 Log2FC: −0.522
NM_007409, 100 mg/kg, vs vehicle
  Adh1 Log2FC: 0.603
NM_007437, 100 mg/kg, vs vehicle
  Aldh3a2 Log2FC: 1.1
NM_007457, 100 mg/kg, vs vehicle
  Ap1s1 Log2FC: 0.242
NM_007468, 100 mg/kg, vs vehicle
  Apoa4 Log2FC: −4.07
NM_007614, 100 mg/kg, vs vehicle
  Ctnnb1 Log2FC: −0.17
NM_007643, 100 mg/kg, vs vehicle
  Cd36 Log2FC: 1.32
NM_007664, 100 mg/kg, vs vehicle
  Cdh2 Log2FC: −0.164
NM_007678, 100 mg/kg, vs vehicle
  Cebpa Log2FC: −0.363
NM_007686, 100 mg/kg, vs vehicle
  Cfi Log2FC: −0.56
NM_007695, 100 mg/kg, vs vehicle
  Chil1 Log2FC: 2.06
NM_007742, 100 mg/kg, vs vehicle
  Col1a1 Log2FC: −1.21
NM_007743, 100 mg/kg, vs vehicle
  Col1a2 Log2FC: −0.924
NM_007748, 100 mg/kg, vs vehicle
  Cox6a1 Log2FC: 0.432
NM_007749, 100 mg/kg, vs vehicle
  Cox7c Log2FC: 0.501
NM_007768, 100 mg/kg, vs vehicle
  Crp Log2FC: −0.931
NM_007807, 100 mg/kg, vs vehicle
  Cybb Log2FC: −0.522
NM_007824, 100 mg/kg, vs vehicle
  Cyp7a1 Log2FC: −1.07
NM_007908, 100 mg/kg, vs vehicle
  Eef2k Log2FC: 0.422
NM_007940, 100 mg/kg, vs vehicle
  Ephx2 Log2FC: 0.794
NM_007976, 100 mg/kg, vs vehicle
  F5 Log2FC: −0.363
NM_007987, 100 mg/kg, vs vehicle
  Fas Log2FC: 0.528
NM_007988, 100 mg/kg, vs vehicle
  Fasn Log2FC: 0.831
NM_008063, 100 mg/kg, vs vehicle
  Slc37a4 Log2FC: −1.17
NM_008086, 100 mg/kg, vs vehicle
  Gas1 Log2FC: −0.608
NM_008150, 100 mg/kg, vs vehicle
  Gpc4 Log2FC: −0.469
NM_008152, 100 mg/kg, vs vehicle
  Gpr65 Log2FC: −0.447
NM_008212, 100 mg/kg, vs vehicle
  Hadh Log2FC: 0.28
NM_008256, 100 mg/kg, vs vehicle
  Hmgcs2 Log2FC: 0.291
NM_008288, 100 mg/kg, vs vehicle
  Hsd11b1 Log2FC: −1.33
NM_008292, 100 mg/kg, vs vehicle
  Hsd17b4 Log2FC: 0.637
NM_008302, 100 mg/kg, vs vehicle
  Hsp90ab1 Log2FC: 0.407
NM_008320, 100 mg/kg, vs vehicle
  Irf8 Log2FC: −0.55
NM_008348, 100 mg/kg, vs vehicle
  ll10ra Log2FC: −0.737
NM_008390, 100 mg/kg, vs vehicle
  Irf1 Log2FC: −0.32
NM_008395, 100 mg/kg, vs vehicle
  Itch Log2FC: −0.277
NM_008509, 100 mg/kg, vs vehicle
  Lpl Log2FC: 1.98
NM_008512, 100 mg/kg, vs vehicle
  Lrp1 Log2FC: −0.339
NM_008533, 100 mg/kg, vs vehicle
  Cd180 Log2FC: −0.776
NM_008555, 100 mg/kg, vs vehicle
  Masp1 Log2FC: −0.24
NM_008569, 100 mg/kg, vs vehicle
  Anapc1 Log2FC: −0.378
NM_008605, 100 mg/kg, vs vehicle
  Mmp12 Log2FC: −1.53
NM_008608, 100 mg/kg, vs vehicle
  Mmp14 Log2FC: −0.522
NM_008677, 100 mg/kg, vs vehicle
  Ncf4 Log2FC: −0.746
NM_008683, 100 mg/kg, vs vehicle
  Nedd8 Log2FC: 0.139
NM_008689, 100 mg/kg, vs vehicle
  Nfkb1 Log2FC: −0.241
NM_008797, 100 mg/kg, vs vehicle
  Pcx Log2FC: −0.57
NM_008874, 100 mg/kg, vs vehicle
  Plcb3 Log2FC: −0.321
NM_008877, 100 mg/kg, vs vehicle
  Plg Log2FC: −0.393
NM_008910, 100 mg/kg, vs vehicle
  Ppm1a Log2FC: 0.148
NM_008927, 100 mg/kg, vs vehicle
  Map2k1 Log2FC: −0.145
NM_008948, 100 mg/kg, vs vehicle
  Psmc3 Log2FC: 0.145
NM_009007, 100 mg/kg, vs vehicle
  Rac1 Log2FC: −0.093
NM_009117, 100 mg/kg, vs vehicle
  Saa1/2 Log2FC: −3.03
NM_009127, 100 mg/kg, vs vehicle
  Scd1 Log2FC: 0.478
NM_009169, 100 mg/kg, vs vehicle
  Sem1 Log2FC: 0.385
NM_009263, 100 mg/kg, vs vehicle
  Spp1 Log2FC: −0.879
NM_009279, 100 mg/kg, vs vehicle
  Ssr4 Log2FC: −0.321
NM_009370, 100 mg/kg, vs vehicle
  Tgfbr1 Log2FC: −0.445
NM_009422, 100 mg/kg, vs vehicle
  Traf2 Log2FC: −0.247
NM_009425, 100 mg/kg, vs vehicle
  Tnfsf10 Log2FC: −0.823
NM_009465, 100 mg/kg, vs vehicle
  Axl Log2FC: −0.493
NM_009692, 100 mg/kg, vs vehicle
  Apoal Log2FC: −1.03
NM_009693, 100 mg/kg, vs vehicle
  Apob Log2FC: −0.289
NM_009720, 100 mg/kg, vs vehicle
  Atox1 Log2FC: 0.157
NM_009743, 100 mg/kg, vs vehicle
  Bcl2l1 Log2FC: −0.344
NM_009776, 100 mg/kg, vs vehicle
  Serping1 Log2FC: −0.631
NM_009779, 100 mg/kg, vs vehicle
  C3ar1 Log2FC: −0.618
NM_009790, 100 mg/kg, vs vehicle
  Calm1 Log2FC: −0.334
NM_009808, 100 mg/kg, vs vehicle
  Casp12 Log2FC: −0.633
NM_009810, 100 mg/kg, vs vehicle
  Casp3 Log2FC: −0.346
NM_009811, 100 mg/kg, vs vehicle
  Casp6 Log2FC: 0.266
NM_009812, 100 mg/kg, vs vehicle
  Casp8 Log2FC: 0.195
NM_009825, 100 mg/kg, vs vehicle
  Serpinh1 Log2FC: −0.486
NM_009870, 100 mg/kg, vs vehicle
  Cdk4 Log2FC: 0.26
NM_009888, 100 mg/kg, vs vehicle
  Cfh Log2FC: −1.41
NM_009911, 100 mg/kg, vs vehicle
  Cxcr4 Log2FC: −0.931
NM_009915, 100 mg/kg, vs vehicle
  Ccr2 Log2FC: −1.18
NM_009930, 100 mg/kg, vs vehicle
  Col3a1 Log2FC: −0.764
NM_009975, 100 mg/kg, vs vehicle
  Csnk2b Log2FC: 0.114
NM_009983, 100 mg/kg, vs vehicle
  Ctsd Log2FC: 0.297
NM_010011, 100 mg/kg, vs vehicle
  Cyp4a10/31/32 Log2FC: 3.15
NM_010185, 100 mg/kg, vs vehicle
  Fcer1g Log2FC: −0.406
NM_010196, 100 mg/kg, vs vehicle
  Fga Log2FC: −0.563
NM_010233, 100 mg/kg, vs vehicle
  Fn1 Log2FC: −0.666
NM_010325, 100 mg/kg, vs vehicle
  Got2 Log2FC: 0.224
NM_010378, 100 mg/kg, vs vehicle
  H2-Aa Log2FC: −0.78
NM_010380, 100 mg/kg, vs vehicle
  H2-D1 Log2FC: −0.266
NM_010382, 100 mg/kg, vs vehicle
  H2-Eb1 Log2FC: −0.772
NM_010386, 100 mg/kg, vs vehicle
  H2-Dma Log2FC: −0.391
NM_010387, 100 mg/kg, vs vehicle
  H2-DMB1 Log2FC: −0.938
NM_010398, 100 mg/kg, vs vehicle
  H2-T23 Log2FC: −0.403
NM_010406, 100 mg/kg, vs vehicle
  Hc Log2FC: −0.325
NM_010431, 100 mg/kg, vs vehicle
  Hif1a Log2FC: 0.358
NM_010480, 100 mg/kg, vs vehicle
  Hsp90aa1 Log2FC: 0.693
NM_010493, 100 mg/kg, vs vehicle
  Icam1 Log2FC: −0.371
NM_010546, 100 mg/kg, vs vehicle
  Ikbkb Log2FC: −0.395
NM_010562, 100 mg/kg, vs vehicle
  Ilk Log2FC: −0.143
NM_010578, 100 mg/kg, vs vehicle
  Itgb1 Log2FC: 0.106
NM_010634, 100 mg/kg, vs vehicle
  Fabp5 Log2FC: 1.1
NM_010724, 100 mg/kg, vs vehicle
  Psmb8 Log2FC: −1.07
NM_010729, 100 mg/kg, vs vehicle
  Loxl1 Log2FC: −1.1
NM_010747, 100 mg/kg, vs vehicle
  Lyn Log2FC: −0.32
NM_010754, 100 mg/kg, vs vehicle
  Smad2 Log2FC: 0.246
NM_010851, 100 mg/kg, vs vehicle
  Myd88 Log2FC: 0.261
NM_010917, 100 mg/kg, vs vehicle
  Nid1 Log2FC: −0.733
NM_011032, 100 mg/kg, vs vehicle
  P4hb Log2FC: −0.842
NM_011044, 100 mg/kg, vs vehicle
  Pek1 Log2FC: −1.88
NM_011100, 100 mg/kg, vs vehicle
  Prkacb Log2FC: −0.158
NM_011125, 100 mg/kg, vs vehicle
  Pltp Log2FC: 1.39
NM_011145, 100 mg/kg, vs vehicle
  Ppard Log2FC: −0.466
NM_011146, 100 mg/kg, vs vehicle
  Pparg Log2FC: −0.615
NM_011159, 100 mg/kg, vs vehicle
  Prkdc Log2FC: −0.568
NM_011173, 100 mg/kg, vs vehicle
  Pros1 Log2FC: −0.22
NM_011175, 100 mg/kg, vs vehicle
  Lgmn Log2FC: −0.499
NM_011187, 100 mg/kg, vs vehicle
  Psmb7 Log2FC: 0.204
NM_011210, 100 mg/kg, vs vehicle
  Ptprc Log2FC: −0.49
NM_011261, 100 mg/kg, vs vehicle
  Rein Log2FC: −0.45
NM_011311, 100 mg/kg, vs vehicle
  S100a4 Log2FC: −1.28
NM_011340, 100 mg/kg, vs vehicle
  Serpinf1 Log2FC: −0.18
NM_011434, 100 mg/kg, vs vehicle
  Sod1 Log2FC: 0.352
NM_011480, 100 mg/kg, vs vehicle
  Srebf1 Log2FC: −0.608
NM_011543, 100 mg/kg, vs vehicle
  Skp1a Log2FC: 0.227
NM_011581, 100 mg/kg, vs vehicle
  Thbs2 Log2FC: −0.831
NM_011594, 100 mg/kg, vs vehicle
  Timp2 Log2FC: −0.609
NM_011597, 100 mg/kg, vs vehicle
  Tjp2 Log2FC: 0.204
